From patent EP0548798A1, “Antiviral agent” (SANWA KAGAKU KENKYUSHO CO., LTD., priority 1991, dated 1993)
≈ marks a conversion by molar mass, not a printed value. Where two headings read alike, the source gives them in different places. Values belong to the compound of their own block, whether it stands above or below them.

What was measured:
[1] = system: herpes simplex virus type 1 (Miyama strain); experiment: Antiviral activity against HSV-1 in vitro, inhibition of virus-induced CPE in GMK cells (Test Example 2); format: cell-based, HSV-1 (Miyama strain); conditions: 0.5% fetal bovine serum
Description: (§1) Confluent GMK cells (derived from green monkey kidney) in 96-well plates were infected with HSV-1 (Miyama strain) in the presence of various concentrations of test compounds. After incubation, virus-induced cytopathic effect (CPE), inhibitory effect of CPE by the test compound and cytotoxicity were microscopically observed. The virus titer (TCID₅₀) was determined from CPE of virus infected culture. Ancivirus effects of test compounds were calculated from TCID₅₀ values of test compound treated and control cultures and represented by ΔTCID₅₀(log₁₀). Test compounds were dissolved in MEM medium, ethanol or DMSO to 10 mg/ml, and diluted with MEM medium supplemented with 0.5% fetal bovine serum.

GMK cells [2] = experiment: Cytotoxicity observed microscopically in GMK cells (Test Example 2); format: cell-based, green monkey; set-up: key: -: no cytotoxicity; ±: slight cytotoxicity; +: cytotoxicity with observable antiviral effect; conditions: in parentheses
Description: as §1
In Table 4, parentheses indicate the cytotoxicity of these compounds. (-), (±) and (+) indicate no cytotoxicity, slight cytotoxicity and cytotoxicity with observable antiviral effect, respectively.

HIV = experiment: Inhibition of HIV-induced cytopathogenicity in MT-4 cells; format: cell-based
Description: MT-4 cells (lymphoma derived from human T cell leukemia) in 96-well plate were infected with […] in the presence of various concentrations of test compounds. After incubation, inhibitory effect of HIV-induced CPE by the test compounds and cytotoxicity were microscopically observed. […]
Further, since the compounds of the present invention have a chemical structure different from the conventional antiviral substances, it is useful for the prevention or treatment of the infectious diseases caused by viruses resistant to the conventional antiviral substances.

MT-4 cells = experiment: Minimum cytotoxic concentration in MT-4 cells; format: cell-based, human
Description: MT-4 cells (lymphoma derived from human T cell leukemia) in 96-well plate were infected with […] in the presence of various concentrations of test compounds. After incubation, inhibitory effect of HIV-induced CPE by the test compounds and cytotoxicity were microscopically observed. […] TABLE 6 In Table 6, parentheses indicate the minimum cytotoxic concentration of test compounds.

[3] = system: herpes simplex virus type 1 (Miyama strain); experiment: Antiviral activity against HSV-1 in vitro, inhibition of virus-induced CPE in GMK cells (Test Example 1); format: cell-based, HSV-1 (Miyama strain); conditions: Human alphaherpesvirus 1, GMK cells, 1% fetal bovine serum, read-out: Antiviral Activity (ΔTCID₅₀(log₁₀))
Description: as §1, with “After incubation, virus-induced cytopathic effect (CPE), inhibitory effect of CPE by the test compound and cytotoxicity were microscopically observed.” left out, “Antivirus” for “Ancivirus”, “1%” for “0.5%”, “bovineserum.” for “bovine serum.”

GMK cells [4] = experiment: Cytotoxicity observed microscopically in GMK cells (Test Example 1); format: cell-based, green monkey; conditions: GMK cells, in parentheses
Description: as §1, with “After incubation, virus-induced cytopathic effect (CPE), inhibitory effect of CPE by the test compound and cytotoxicity were microscopically observed.” left out, “Antivirus” for “Ancivirus”, “1%” for “0.5%”, “bovineserum.” for “bovine serum.”
In Table 1, parentheses indicate the cytotoxicity of these compounds. (-) and (±) indicate no cytotoxicity and slight cytotoxicity, respectively.

HSV-1 (Miyama strain) = experiment: Anti HSV-1 activity in vivo, intraperitoneally infected mice; set-up: species or system Male BALB/c mice; conditions: 322 PFU (10LD₅₀) HSV-1
Description: Male BALB/c mice (5 weeks of age) were intraperitoneally infected with 322 PFU (plaque forming unit, 10LD₅₀) of HSV-1 (Miyama strain). Twenty one days later, survival ratio and mean survival days were evaluated. Test compounds were dispersed in 5% arabic gum/physiological saline, and intraperitoneally administered at 10 mg and 20 mg/kg. Treatment began just after virus inoculation and continued for 5 days.

[5] = Human immunodeficiency virus 1, MT-4 cells, minimum inhibitory concentration, read-out: Anti-HIV Activity (MIC, µg/ml)
[6] = Human immunodeficiency virus 1, read-out: Anti-HIV Activity (MIC, µg/ml)
[7] = 10 mg/kg intraperitoneally for 5 days
[8] = 20 mg/kg intraperitoneally for 5 days

Compound: CCCCCCCC(=O)N1CCN(c2ccccc2C(F)(F)F)CC1 [Compound of Example 16, 1-(2-Trifluoromethylphenyl)-4-octanoylpiperazine]
Antiviral Activity (ΔTCID₅₀(log₁₀)) ([1]; 5 µg/ml): 2.16 log₁₀
Antiviral Activity (ΔTCID₅₀(log₁₀)) ([1]; 10 µg/ml): > 3.00 log₁₀
cytotoxicity (GMK cells [2]; 5 µg/ml): -
cytotoxicity (GMK cells [2]; 10 µg/ml): +
MIC (HIV; [5]): > 63 µg/mL
minimum cytotoxic concentration (MT-4 cells; MT-4 cells, in parentheses): 125 µg/mL

Compound: CCCCC/C=C\C/C=C\CCCCCCCC(=O)N1CCN(c2ccccc2Cl)CC1 [Compound of Example 8, 1-(2-Chlorophenyl)-4-[(Z,Z)-9,12-octadecadienoyl]piperazine]
log reduction at 10 µg/mL [3]: 2
cytotoxicity (GMK cells [4]; 10 µg/ml): -
Mean Survival Days (HSV-1 (Miyama strain); [7]): 13.7 ± 1.6 days
Survival Ratio at 21 days (%) (HSV-1 (Miyama strain); [7]): 20%
Mean Survival Days (HSV-1 (Miyama strain); [8]): 16.4 ± 2.0 days
Survival Ratio at 21 days (%) (HSV-1 (Miyama strain); [8]): 40%
MIC (HIV; [5]): 16 µg/mL (≈ 34.8 µM)
minimum cytotoxic concentration (MT-4 cells; MT-4 cells, in parentheses): > 125 µg/mL

Compound: CCCCCCCC(=O)N1CCN(c2ccccc2Cl)CC1 [Compound of Example 9, 1-(2-Chlorophenyl)-4-octanoylpiperazine]
log reduction at 5 µg/mL ([3]; 5 µg/ml): 0.83
log reduction at 10 µg/mL [3]: > 3
cytotoxicity (GMK cells [4]; 5 µg/ml): -
cytotoxicity (GMK cells [4]; 10 µg/ml): ±
Mean Survival Days (HSV-1 (Miyama strain); [7]): 14.2 ± 1.5 days
Survival Ratio at 21 days (%) (HSV-1 (Miyama strain); [7]): 20%
Mean Survival Days (HSV-1 (Miyama strain); [8]): 18.7 ± 1.8 days
Survival Ratio at 21 days (%) (HSV-1 (Miyama strain); [8]): 60%
MIC (HIV; [5]): > 125 µg/mL
minimum cytotoxic concentration (MT-4 cells; MT-4 cells, in parentheses): > 250 µg/mL

The next lines start with results.

MIC (HIV; [5]): 31 µg/mL (≈ 66.7 µM)
Compound: COc1cc2c(=O)n(N3CCN(c4ccccc4C(F)(F)F)CC3)ncc2c(OC)c1OC [Compound of Example 19, 2-[4-(2-Trifluoromethylphenyl)-1-piperazinyl]-5,6,7-trimethoxy-1(2H)-phthalazinone]
Antiviral Activity (ΔTCID₅₀(log₁₀)) ([1]; 5 µg/ml): 1.17 log₁₀
Antiviral Activity (ΔTCID₅₀(log₁₀)) ([1]; 10 µg/ml): > 3.00 log₁₀
cytotoxicity (GMK cells [2]; 5 µg/ml): -
cytotoxicity (GMK cells [2]; 10 µg/ml): +
minimum cytotoxic concentration (MT-4 cells; MT-4 cells, in parentheses): > 125 µg/mL

MIC (HIV; [6]): 4 µg/mL (≈ 7.34 µM)
Compound: CC[C@@]12C=C(C(=O)OCCN3CCN(c4ccccc4Cl)CC3)n3c4c(c5ccccc53)CCN(CCC1)[C@H]42 [Compound of Example 28, (3α,16α)-Eburunamenine-14-carboxylic acid 2-[4-(2-chlorophenyl)piperazine-1-yl]ethyl ester]
Antiviral Activity (ΔTCID₅₀(log₁₀)) ([1]; 5 µg/ml): 2.00 log₁₀
Antiviral Activity (ΔTCID₅₀(log₁₀)) ([1]; 10 µg/ml): 3.00 log₁₀
cytotoxicity (GMK cells [2]; 5 µg/ml): -
cytotoxicity (GMK cells [2]; 10 µg/ml): +
minimum cytotoxic concentration (MT-4 cells): 63 µg/mL

MIC (HIV; [6]): 8 µg/mL (≈ 14.8 µM)
Compound: CC[C@@]12C=C(C(=O)OCCN3CCN(c4ccccc4OC)CC3)n3c4c(c5ccccc53)CCN(CCC1)[C@H]42 [Compound of Example 27, (3α,16α)-Eburunamenine-14-carboxylic acid 2-[4-(2-methoxyphenyl)piperazine-1-yl]ethyl ester]
Antiviral Activity (ΔTCID₅₀(log₁₀)) ([1]; 5 µg/ml): 1.00 log₁₀
Antiviral Activity (ΔTCID₅₀(log₁₀)) ([1]; 10 µg/ml): 3.00 log₁₀
cytotoxicity (GMK cells [2]; 5 µg/ml): -
cytotoxicity (GMK cells [2]; 10 µg/ml): ±
minimum cytotoxic concentration (MT-4 cells): 63 µg/mL
